As a reminder, the EC50 is the concentration at which the effect is half-maximal. Usually IC50 stands for the concentration at which inhibition is half-maximal.

The subject of experiment [1] is Snhg1 transcript (NMD target gene) in EMT6 murine breast cancer cell line. The experiment is described as follows: Measurement of NMD inhibitory activity in cells (increase in Snhg1 transcript, real-time PCR). The arrangement: species or system mouse. As to conditions: Mus musculus, 6 hours treatment, concentration giving 1/2 of maximum Snhg1 fold change of positive control, read-out: Test Example 2 Cell-based Snhg1 EC50. The procedure: The NMD inhibitory activity of a compound of the present invention or a pharmaceutically acceptable salt thereof in cells can be measured, for example, by the method described below. EMT6 murine breast cancer cell line is treated with a test substance in vitro for 6 hours, and the increase in the transcript of Snhg1, a known NMD target gene, is quantified as an indicator of NMD inhibition. Quantification is performed by real-time PCR.
NMD inhibitory activity was measured by treating EMT6 murine breast cancer cell line (ATCC) with a test substance and quantifying the increase in the transcript of Snhg1, an NMD target gene (see F. Usui, et al., Scientific Reports volume 9, Article number: 1279 (2019) for the NMD target gene). That is, EMT6 cells were suspended in Waymouth's medium (Gibco, 15% FBS) and seeded in a 96-well plate at 2×10^4 cells/well. The cells were cultured for 1 day. The next day, serially diluted test substance (DMSO solution, final DMSO concentration: 2%) was added. After culturing for 6 hours, the supernatant was removed, and RNA was extracted using the RNeasy 96 kit (QIAGEN, 74182). After synthesizing cDNA using the High Capacity cDNA Reverse Transcription kit (Applied Biosystems, 4368813), the cDNA was mixed with PrimeTime Gene Expression Master Mix (Integrated DNA Technologies) and various probes, and gene expression was quantified using QuantStudio 6 Flex (Thermo Fisher Scientific Inc.). For the probe for the Snhg1 gene, which is an NMD target, Mm.PT.58.44039547 (FAM)(Integrated DNA Technologies) was used, and for the probe for the Tbp gene, which is an endogenous control, Mm00446973_m1 Tbp (VIC-PL) (Applied Biosystems) was used. The relative quantification of Snhg1 transcripts was calculated by the ΔΔCT method, using Thp as an endogenous control and setting the expression level of Snhg1 in untreated wells to 1.
A known NMD inhibitory compound (pyrimidine derivative Example 11i, Bioorg Med Chem Lett. 2012, 22(21), 6636-41) was used as a positive control drug for NMD inhibition. The NMD inhibitory activity of the test substance-added well was calculated as follows: the maximum fold change in Sngh1 expression in the positive control drug-added well relative to that in the untreated well was defined as the maximum NMD inhibitory activity, and the EC50 (compound concentration showing 50%/activity) of the test substance showing a ½-fold change was calculated by the GROWTH function of Microsoft Excel.
(In general: Quantitative PCR measures a nucleic acid by following its amplification.)

A further experiment has as its target human SMG1 enzyme (Homo sapiens, UniProt Q96Q15). The experiment is described as follows: Measurement of SMG1 kinase activity (ADP-Glo Kinase Assay). As to conditions: purified human SMG1 enzyme 5 nM, Upf1 peptide substrate, ATP 4 μM; qAC50 synonymous with IC50; read-out: Test Example 1 ADP-Glo IC50. The experiment is classed as biochemical. The text has this: The SMG1 kinase inhibitory activity of a compound of the present invention or a pharmaceutically acceptable salt thereof can be measured, for example, by the method described below. Using purified human SMG1 protein and a substrate peptide as materials, the kinase activity can be measured by the ADP-Glo Kinase Assay; the SMG1 kinase inhibitory activity of a test substance can be evaluated by comparing the kinase activity in the presence and absence of the test substance.
The reaction was performed by the ADP-Glo Kinase Assay (Promega, catalog number V9102) using a 384-well plate under the conditions of an assay buffer (100 mM HEPES (pH 7.5), 50 mM NaCl, 10 mM MnCl2, 0.01% BSA, 0.1% Tween 20.5 mM TCEP). After incubating a test substance (DMSO solution; final DMSO concentration: 1%) and purified human SMG1 enzyme (Genes Dev. 2011 Jan. 15; 25(2): 153-164, produced by Daiichi Sankyo RD Novare Co., Ltd.; final concentration: 5 nM) at room temperature for 15 minutes, a substrate, Upf1 peptide (Biotin-(PEG8) QIDVALSQDSTYQG, produced by Eurofins genomics; final concentration: 8 μg/mL), and ATP (Promega: 4 μM) were added, and the mixture was reacted at room temperature for 60 minutes (see Non-Patent Literature R. Melero, et al., Structure Volume 22, Issue 8, 5 Aug. 2014, Pages 1105-1119 for the Upf1 peptide). ADP-Glo Reagent was added, and the mixture was reacted at room temperature for 40 minutes. Kinase Detection Reagent was added, and the mixture was reacted for another 30 minutes. The luminescence intensity was measured using EnVision (PerkinElmer).
The activity value (%) of the test substance-added well was calculated from the following formula, where the average luminescence intensity of the DMSO-added well was 0% and the average luminescence intensity of the SMG1 enzyme-free well was −100%.
The qAC50 (compound concentration showing 50% inhibition, synonymous with IC50) of the test substance was calculated using the activity value (%) at each concentration by Smart fit of Screener (Genedata). Smart fit is a general 4-parameter logistic regression model.
A general note: In ADP-Glo the light output rises with the ADP produced.

Where a name gives a salt, the structure may show the parent alone.

human SMG1 enzyme, sequence (Q96Q15 whole entry): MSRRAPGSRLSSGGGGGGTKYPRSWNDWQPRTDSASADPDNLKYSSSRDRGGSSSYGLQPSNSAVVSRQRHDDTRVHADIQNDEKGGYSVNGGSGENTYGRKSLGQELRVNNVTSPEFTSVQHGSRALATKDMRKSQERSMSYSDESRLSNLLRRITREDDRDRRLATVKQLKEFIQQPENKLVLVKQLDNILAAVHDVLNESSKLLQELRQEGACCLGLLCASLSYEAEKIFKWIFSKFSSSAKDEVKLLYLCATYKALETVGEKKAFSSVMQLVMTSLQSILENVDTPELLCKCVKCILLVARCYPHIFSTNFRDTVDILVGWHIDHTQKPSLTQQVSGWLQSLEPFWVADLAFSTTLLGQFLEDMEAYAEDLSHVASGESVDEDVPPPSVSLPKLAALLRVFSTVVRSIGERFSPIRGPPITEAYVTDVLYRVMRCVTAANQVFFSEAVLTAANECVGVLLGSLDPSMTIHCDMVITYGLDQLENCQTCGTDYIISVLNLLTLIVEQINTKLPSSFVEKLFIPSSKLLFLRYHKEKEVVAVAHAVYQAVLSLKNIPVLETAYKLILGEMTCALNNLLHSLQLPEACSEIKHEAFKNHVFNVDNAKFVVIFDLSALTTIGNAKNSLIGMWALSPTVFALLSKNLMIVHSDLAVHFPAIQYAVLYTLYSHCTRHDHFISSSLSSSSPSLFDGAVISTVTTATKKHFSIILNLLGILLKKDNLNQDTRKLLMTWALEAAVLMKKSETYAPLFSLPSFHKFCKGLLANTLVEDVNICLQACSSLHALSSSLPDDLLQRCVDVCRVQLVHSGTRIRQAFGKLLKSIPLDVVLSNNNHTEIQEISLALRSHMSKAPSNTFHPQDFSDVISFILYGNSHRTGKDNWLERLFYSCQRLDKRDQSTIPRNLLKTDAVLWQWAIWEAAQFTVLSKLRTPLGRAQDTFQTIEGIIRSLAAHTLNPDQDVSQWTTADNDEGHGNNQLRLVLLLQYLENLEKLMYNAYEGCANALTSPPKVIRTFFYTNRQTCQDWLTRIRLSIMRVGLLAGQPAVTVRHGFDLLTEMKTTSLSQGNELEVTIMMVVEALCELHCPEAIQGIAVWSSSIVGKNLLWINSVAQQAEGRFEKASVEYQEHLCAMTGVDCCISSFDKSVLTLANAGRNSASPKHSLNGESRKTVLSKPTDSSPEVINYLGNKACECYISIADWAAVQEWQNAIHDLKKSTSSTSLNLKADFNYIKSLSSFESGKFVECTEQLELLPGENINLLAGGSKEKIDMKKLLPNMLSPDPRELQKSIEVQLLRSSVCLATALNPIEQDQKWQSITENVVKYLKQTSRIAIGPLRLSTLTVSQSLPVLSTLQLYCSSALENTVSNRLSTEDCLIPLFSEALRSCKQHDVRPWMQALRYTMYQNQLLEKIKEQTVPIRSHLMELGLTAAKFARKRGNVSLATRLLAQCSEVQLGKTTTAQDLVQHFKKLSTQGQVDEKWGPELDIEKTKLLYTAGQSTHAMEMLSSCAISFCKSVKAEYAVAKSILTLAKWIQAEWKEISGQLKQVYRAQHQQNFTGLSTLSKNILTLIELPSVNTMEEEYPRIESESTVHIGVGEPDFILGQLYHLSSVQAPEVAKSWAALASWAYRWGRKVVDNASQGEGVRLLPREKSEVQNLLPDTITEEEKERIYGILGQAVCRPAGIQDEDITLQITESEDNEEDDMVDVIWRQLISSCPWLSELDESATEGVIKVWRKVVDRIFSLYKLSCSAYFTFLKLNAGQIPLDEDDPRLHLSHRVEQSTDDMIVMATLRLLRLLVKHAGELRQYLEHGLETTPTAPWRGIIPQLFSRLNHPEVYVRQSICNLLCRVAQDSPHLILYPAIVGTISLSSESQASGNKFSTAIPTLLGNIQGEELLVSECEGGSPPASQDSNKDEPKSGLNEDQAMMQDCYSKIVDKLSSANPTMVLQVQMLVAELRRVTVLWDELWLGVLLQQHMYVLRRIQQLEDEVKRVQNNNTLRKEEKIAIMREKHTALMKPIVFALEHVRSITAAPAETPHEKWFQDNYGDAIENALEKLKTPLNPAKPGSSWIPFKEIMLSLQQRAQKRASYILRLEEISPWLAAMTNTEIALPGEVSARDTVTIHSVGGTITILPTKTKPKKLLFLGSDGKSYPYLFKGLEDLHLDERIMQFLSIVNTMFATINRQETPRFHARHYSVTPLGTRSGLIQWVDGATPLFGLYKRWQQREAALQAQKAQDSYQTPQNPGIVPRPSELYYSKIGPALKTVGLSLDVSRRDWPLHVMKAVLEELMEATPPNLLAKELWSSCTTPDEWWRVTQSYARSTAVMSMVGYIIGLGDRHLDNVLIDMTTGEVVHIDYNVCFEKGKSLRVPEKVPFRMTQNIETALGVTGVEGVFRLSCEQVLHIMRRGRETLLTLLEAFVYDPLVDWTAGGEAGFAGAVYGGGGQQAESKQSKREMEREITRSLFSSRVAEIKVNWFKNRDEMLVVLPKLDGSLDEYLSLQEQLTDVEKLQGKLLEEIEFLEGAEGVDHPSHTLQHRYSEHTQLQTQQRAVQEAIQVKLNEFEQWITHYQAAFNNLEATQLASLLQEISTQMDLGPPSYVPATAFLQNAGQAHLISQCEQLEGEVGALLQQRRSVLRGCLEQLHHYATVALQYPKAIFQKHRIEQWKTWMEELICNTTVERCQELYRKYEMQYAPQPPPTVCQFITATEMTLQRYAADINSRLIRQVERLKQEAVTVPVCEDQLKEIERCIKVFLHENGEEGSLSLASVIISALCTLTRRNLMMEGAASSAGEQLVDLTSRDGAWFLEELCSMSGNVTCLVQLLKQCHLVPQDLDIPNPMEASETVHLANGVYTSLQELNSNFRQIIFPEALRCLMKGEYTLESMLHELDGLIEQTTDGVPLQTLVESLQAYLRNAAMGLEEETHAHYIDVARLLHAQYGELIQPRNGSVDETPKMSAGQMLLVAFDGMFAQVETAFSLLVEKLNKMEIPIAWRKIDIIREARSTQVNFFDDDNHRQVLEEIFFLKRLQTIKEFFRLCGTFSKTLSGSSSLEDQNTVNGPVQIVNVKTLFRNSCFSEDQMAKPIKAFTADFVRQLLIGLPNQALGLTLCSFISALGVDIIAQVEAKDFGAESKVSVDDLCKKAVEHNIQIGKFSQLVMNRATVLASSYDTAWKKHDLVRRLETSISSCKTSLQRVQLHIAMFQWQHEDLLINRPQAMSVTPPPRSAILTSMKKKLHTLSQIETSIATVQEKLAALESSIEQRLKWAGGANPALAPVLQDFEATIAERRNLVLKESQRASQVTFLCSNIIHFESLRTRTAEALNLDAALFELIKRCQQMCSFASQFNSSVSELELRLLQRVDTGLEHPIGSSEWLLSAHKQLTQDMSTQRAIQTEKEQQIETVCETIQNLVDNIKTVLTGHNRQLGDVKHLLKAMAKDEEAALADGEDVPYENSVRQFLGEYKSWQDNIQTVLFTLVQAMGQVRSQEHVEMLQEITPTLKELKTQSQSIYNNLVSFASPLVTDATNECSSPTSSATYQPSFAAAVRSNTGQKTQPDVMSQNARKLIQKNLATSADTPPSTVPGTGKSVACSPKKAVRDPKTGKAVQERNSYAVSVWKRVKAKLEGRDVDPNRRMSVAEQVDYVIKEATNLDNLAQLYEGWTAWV

With `[2H]C([2H])([2H])Oc1ccccc1-c1nccc2[nH]c(=O)c(-c3nc4c(N5CCNC(=O)C5)nc(Cl)cc4[nH]3)cc12` [Example 43, 3-[6-chloro-4-(3-oxopiperazin-1-yl)-1H-imidazo[4,5-c]pyridin-2-yl]-5-{2-[(^2H3)methyloxy]phenyl}-1,6-naphthyridin-2(1H)-one], in experiment [1], the EC50 is 24 nM. Also, the IC50 on human SMG1 enzyme is 0.97 nM.

With `[2H]C([2H])([2H])Oc1ccccc1-c1nccc2[nH]c(=O)c(-c3nc4c(N=S(C)(C)=O)nc(Cl)cc4[nH]3)cc12` [Example 44, 3-(6-chloro-4-{[dimethyl(oxide)-A6-sulfanylidene]amino}-1H-imidazo[4,5-c]pyridin-2-yl)-5-{2-[(^2H3)methyloxy]phenyl}-1,6-naphthyridin-2(1H)-one], the EC50 in experiment [1] came to 54 nM. On human SMG1 enzyme, the IC50 was 0.5 nM.

As to `Cc1nc(Cl)cc2[nH]c(-c3cc4c(-c5c(F)cccc5C#N)nccc4[nH]c3=O)nc12` [Example 45, 2-[3-(6-chloro-4-methyl-1H-imidazo[4,5-c]pyridin-2-yl)-2-oxo-1,2-dihydro-1,6-naphthyridin-5-yl]-3-fluorobenzonitrile], the EC50 in experiment [1] is 11 nM. Moreover, on human SMG1 enzyme, the IC50 was 0.8 nM.

Take `CC(C)(O)c1cccc(-c2nccc3[nH]c(=O)c(-c4nc5cnc(Cl)cc5[nH]4)cc23)c1` [Example 46, 3-(6-chloro-1H-imidazo[4,5-c]pyridin-2-yl)-5-[3-(2-hydroxypropan-2-yl)phenyl]-1,6-naphthyridin-2(1H)-one]: the EC50 in experiment [1] was found to be 115 nM. For the same compound, the IC50 at human SMG1 enzyme is 1.8 nM.

For `O=c1[nH]c2ccnc(-c3cccc(CN4C5CCC4COC5)c3)c2cc1-c1nc2cnc(Cl)cc2[nH]1` [Example 47, 3-(6-chloro-1H-imidazo[4,5-c]pyridin-2-yl)-5-[3-(3-oxa-8-azabicyclo[3.2.1]octan-8-ylmethyl)phenyl]-1,6-naphthyridin-2(1H)-one], in experiment [1], the EC50 was found to be 117 nM. Besides, the IC50 on human SMG1 enzyme is 2.1 nM.

With `Cc1ccccc1-c1nccc2[nH]c(=O)c(-c3nc4c(N5CCCC(N)C5)nc(Cl)cc4[nH]3)cc12` (stereo not drawn) [Example 56, 3-[4-(3-aminopiperidin-1-yl)-6-chloro-1H-imidazo[4,5-c]pyridin-2-yl]-5-(2-methylphenyl)-1,6-naphthyridin-2(1H)-one hydrochloride], the EC50 in experiment [1] is 1.2 nM. Further, on human SMG1 enzyme, the IC50 stood at 0.52 nM.

As for `COc1cc(C)ncc1-c1nccc2[nH]c(=O)c(-c3nc4c(C)nc(Cl)cc4[nH]3)cc12` [Example 59, 3-(6-chloro-4-methyl-1H-imidazo[4,5-c]pyridin-2-yl)-5-(4-methoxy-6-methylpyridin-3-yl)-1,6-naphthyridin-2(1H)-one], the EC50 in experiment [1] was 41 nM. Moreover, at human SMG1 enzyme, the IC50 was determined as 0.52 nM.

With `CCc1nc(Cl)cc2[nH]c(-c3cc4c(-c5cnc(C)cc5OC)nccc4[nH]c3=O)nc12` [Example 60, 3-(6-chloro-4-ethyl-1H-imidazo[4,5-c]pyridin-2-yl)-5-(4-methoxy-6-methylpyridin-3-yl)-1,6-naphthyridin-2(1H)-one], in experiment [1], the concentration for a half-maximal effect (EC50) came out at 5.7 nM. Further, the IC50 at human SMG1 enzyme was 0.7 nM.

`COc1cc(C2CC2)ncc1-c1nccc2[nH]c(=O)c(-c3nc4cnc(Cl)cc4[nH]3)cc12` [Example 62, 3-(6-chloro-1H-imidazo[4,5-c]pyridin-2-yl)-5-(6-cyclopropyl-4-methoxypyridin-3-yl)-1,6-naphthyridin-2(1H)-one]: the EC50 in experiment [1] amounted to 16 nM. Also, at human SMG1 enzyme, the IC50 is 0.95 nM.

Consider `COc1cc(C(F)F)ncc1-c1nccc2[nH]c(=O)c(-c3nc4c(C)nc(Cl)cc4[nH]3)cc12` [Example 63, 3-(6-chloro-4-methyl-1H-imidazo[4,5-c]pyridin-2-yl)-5-[6-(difluoromethyl)-4-methoxypyridin-3-yl]-1,6-naphthyridin-2(1H)-one], for which, in experiment [1], the EC50 is 14 nM. The IC50 at human SMG1 enzyme stood at 0.68 nM.

With `COc1cc(C(F)(F)F)ncc1-c1nccc2[nH]c(=O)c(-c3nc4c(C)nc(Cl)cc4[nH]3)cc12` [Example 64, 3-(6-chloro-4-methyl-1H-imidazo[4,5-c]pyridin-2-yl)-5-[4-methoxy-6-(trifluoromethyl)pyridin-3-yl]-1,6-naphthyridin-2(1H)-one], in experiment [1], the EC50 worked out at 15 nM. Besides, the IC50 at human SMG1 enzyme was determined as 0.84 nM.

Consider `COc1cc(C(C)(F)F)ncc1-c1nccc2[nH]c(=O)c(-c3nc4c(C)nc(Cl)cc4[nH]3)cc12` [Example 65, 3-(6-chloro-4-methyl-1H-imidazo[4,5-c]pyridin-2-yl)-5-[6-(1,1-difluoroethyl)-4-methoxypyridin-3-yl]-1,6-naphthyridin-2(1H)-one], for which the EC50 in experiment [1] is 15 nM. In addition, the IC50 at human SMG1 enzyme worked out at 0.69 nM.

In the case of `COc1nc(C)ccc1-c1nccc2[nH]c(=O)c(-c3nc4cnc(Cl)cc4[nH]3)cc12` [Example 66, 3-(6-chloro-1H-imidazo[4,5-c]pyridin-2-yl)-5-(2-methoxy-6-methylpyridin-3-yl)-1,6-naphthyridin-2(1H)-one], the EC50 in experiment [1] came out at 67 nM. Moreover, on human SMG1 enzyme, the IC50 was 2.2 nM.

Consider `COc1nc(C)ccc1-c1nccc2[nH]c(=O)c(-c3nc4c(C)nc(Cl)cc4[nH]3)cc12` [Example 67, 3-(6-chloro-4-methyl-1H-imidazo[4,5-c]pyridin-2-yl)-5-(2-methoxy-6-methylpyridin-3-yl)-1,6-naphthyridin-2(1H)-one], for which, in experiment [1], the EC50 amounted to 32 nM. Moreover, the IC50 on human SMG1 enzyme is 1 nM.

For the compound `COc1nc(C)ncc1-c1nccc2[nH]c(=O)c(-c3nc4c(NCC(F)F)nc(Cl)cc4[nH]3)cc12` [Example 69, 3-(6-chloro-4-[(2,2-difluoroethyl)amino]-1H-imidazo[4,5-c]pyridin-2-yl)-5-(4-methoxy-2-methylpyrimidin-5-yl)-1,6-naphthyridin-2(1H)-one], the EC50 in experiment [1] was 6.8 nM. The IC50 on human SMG1 enzyme worked out at 0.91 nM.

`COc1ncc(-c2nccc3[nH]c(=O)c(-c4nc5c(N6C[C@H](F)C[C@H]6C)nc(Cl)cc5[nH]4)cc23)c(OC)n1` [Example 71, 3-(6-chloro-4-[(2R,4R)-4-fluoro-2-methylpyrrolidin-1-yl]-1H-imidazo[4,5-c]pyridin-2-yl)-5-(2,4-dimethoxypyrimidin-5-yl)-1,6-naphthyridin-2(1H)-one]: the EC50 in experiment [1] came out at 2.3 nM. Besides, the IC50 on human SMG1 enzyme worked out at 1.3 nM.

For `CCc1nc(Cl)cc2[nH]c(-c3cc4c(-c5cnc(C6CC6)cc5OC(F)F)nccc4[nH]c3=O)nc12` [Example 75, 3-(6-chloro-4-ethyl-1H-imidazo[4,5-c]pyridin-2-yl)-5-[6-cyclopropyl-4-(difluoromethoxy)pyridin-3-yl]-1,6-naphthyridin-2(1H)-one], in experiment [1], the EC50 came to 51 nM. On human SMG1 enzyme, the IC50 amounted to 1.2 nM.

As to `Cn1ccc(-c2nccc3[nH]c(=O)c(-c4nc5cnc(Cl)cc5[nH]4)cc23)c1` [Example 86, 3-(6-chloro-1H-imidazo[4,5-c]pyridin-2-yl)-5-(1-methyl-1H-pyrrol-3-yl)-1,6-naphthyridin-2(1H)-one], the EC50 in experiment [1] amounted to 43 nM. The IC50 on human SMG1 enzyme turned out to be 1.8 nM.
